Target: T1, NR2F6 (ligand binding domain, amino acids 163-404) (Homo sapiens, UniProt P10588)
T1 construct: HIS (N, cleaved yes); FLAG (N, cleaved yes); TEV site (N, cleaved yes); made in house; host or cells: E. coli BL21 (DE3)
T1 sequence (P10588 163-404): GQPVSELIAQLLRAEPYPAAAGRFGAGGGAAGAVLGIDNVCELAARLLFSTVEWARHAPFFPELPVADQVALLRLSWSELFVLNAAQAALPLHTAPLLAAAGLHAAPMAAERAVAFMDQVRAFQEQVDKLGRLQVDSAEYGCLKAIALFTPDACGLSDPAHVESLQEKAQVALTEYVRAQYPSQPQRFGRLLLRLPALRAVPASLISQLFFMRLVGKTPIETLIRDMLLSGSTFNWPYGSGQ
Test: Thermoshift analysis (TSA) of compound binding to NR2F6
Settings: for Tm / delta Tm: Table 1.1, 100 μM compound; for Tm: 0.5 mg/ml NR2F6, 1% DMSO, NR2F6 alone Tm 48 °C; for delta Tm: shift versus NR2F6 alone (Tm 48 °C)
Experimental: The binding interaction between target protein NR2F6 and 139 compounds selected from an in silico screen was assessed using thermoshift analysis (TSA). Thermoshift is a physical technique used to determine the melting temperature of a protein. The interaction of the ligand to the folded state of the protein shifts the melting temperature. In the experimental system used, the NR2F6 protein is mixed with the ligand and the fluorescent dye SYPRO Orange®. The fluorescence is monitored over temperature gradient between 20 and 95° C. with 0.5° C. increment. The dye binds to the hydrophobic regions of molten globules and denatured proteins resulting in an increase of fluorescence. A plot of the fluorescence is obtained and used to determine the melting temperature in absence and presence of ligand.
The ligand binding domain of NR2F6 (amino acids 163-404) was cloned for soluble expression in E. coli with an N-terminal HIS-FLAG-TEV-tag. Expression was performed in BL21 (DE3) cells. In brief, a 12L E. coli culture was induced with IPTG in logarithmic phase and further incubated over night at 18° C. Cells were harvested via centrifugation, washed with buffer and stored at […] until purification.
The purification procedure performed consists of HIS affinity chromatography, tag cleavage, negative affinity chromatography, size exclusion chromatography and ion exchange chromatography.
Thermoshift analysis was performed on 139 Compounds that were stored as powder in DMSO stocks. A reaction volume of 25 μl was used, with reaction temperatures being increased in 0.5 increments from 20-95° C. in 96 well, PCR plates (Hard-Shell®, HSP-9655). The control was NR2F6 protein alone in 1% DMSO. For performing the reaction, a reaction buffer comprising of the following was utilized: 20 mM HEPES pH 6.85, 150 mM NaCl, 10% Glycerin and 0.5 mM TCEP.
The following pipetting sequence was used: 1) Add appropriate volume of target enzyme in reaction buffer; 2) Add appropriate volume of dye SYPRO Orange® in reaction buffer; 3) Add inhibitor in 100% DMSO (1% final DMSO conc); 4) Measure fluorescence
Fluorescence was quantified using a CFX Connect™ Real-Time PCR Detection System (BioRad)
An increase in melting temperature is indicative for compound binding.

Compound: CCCCCCCC/C=C\CCCCCCCC(=O)NCCO [Cpd 76, N-Oleoylethanolamide]
- Tm: 48.5 °C
- delta Tm: 0.5 °C

Compound: C[C@]12CCC(=O)C=C1CC[C@@H]1[C@@H]2CC[C@]2(C)C(=O)CC[C@@H]12 [Cpd 77, Androstenedione]
- ΔTm at 100 µM: -1 °C
- Tm: 47 °C

Compound: Clc1cnc(Oc2ccc(Oc3ncc(Cl)cc3Cl)cc2)c(Cl)c1 [Cpd 70, TCPOBOP]
- Tm: 48 °C
- delta Tm: 0 °C
